Laboratory results taken from US7410974B2, “Halogenated Quinazolinyl nitrofurans as antibacterial agents” (Ulysses Pharmaceutical Products, Inc., priority 2003, dated 2008).
In brackets after ≈: the same amount, converted by molar mass. Read-outs that look alike come from different tables or passages of the source.

What was measured:
E. coli MC4100 = assay: MIC broth microdilution (NCCLS); type: cell-based; conditions: Escherichia coli; E. coli MC4100, pathotype Reference
Experimental: (§1) Minimal Inhibitory Concentration (MIC) Determination. Bacteria (primary strain panel, TABLE 1). Susceptibility tests were performed following the recommendations from the National Committee for Clinical Standards (NCCLS). The MICs were determined by a broth microdilution technique using a final volume of 100 μl of cation-adjusted Mueller Hinton Broth (MHBCA) and a bacterial inoculum of 10^5-10^6 Colony Forming Units (CFU)/ml. The inocula were verified and precisely determined by applying 10-μl drops of 10-fold dilutions onto Triptic Soy Agar plates. The CFU were counted after an incubation of 24 h at 35° C. Any experiment showing an inoculum that was more or less than 10^5-10^6 CFU/ml was rejected. Control antibiotics and test compounds were prepared at a concentration equivalent to 2-fold the highest desired final concentration. Compounds were then diluted directly in the 96-well microtiter plates by serial 2-fold dilutions using a multichannel pipette. Microtiter plates were incubated during 24 h at 35° C. and growth was recorded by using a microtiterplate reader at 650 nm as well as by visual observation. The MIC was defined as the lowest concentration of compound yielding no visible growth. […] Fastidious bacteria. The medium used for Listeria monocytogenes, Neisseria meningitidis, and Campylobacter jejuni was MHBCA containing 2% laked horse blood. The medium used for Haemophilus influenzae and Branhamella (Moraxella) catarrhalis was HTM as recommended by the NCCLS. Cultures of these fastidious bacteria were incubated at 35° C. in a 5% CO2 atmosphere. […] The medium used for Bacteroides fragilis was Wilkins Chalgren broth and growth was allowed under an anaerobic atmosphere at 35° C. for 48 hours.

E. coli ATCC 25922 = assay: MIC broth microdilution (NCCLS); type: cell-based, Escherichia coli
[1] = tested on: S. epidermidis ATCC 12228; assay: MIC broth microdilution (NCCLS); type: cell-based, Staphylococcus epidermidis; conditions: Staphylococcus epidermidis, ATCC12228; S. epidermidis ATCC 12228; read-out: MIC
Procedure, shortened: (§2)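 Susceptibility by NCCLS microdilution: checked inoculum 10^5-10^6 CFU/ml, 24 h at 35° C, and growth assessed at 650 nm and by eye. Haemophilus was tested in HTM medium and Listeria with laked horse blood, each incubated under 5% CO2.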

S. aureus ATCC 29213 = assay: MIC broth microdilution (NCCLS); type: cell-based, Staphylococcus aureus; conditions: Staphylococcus aureus, ATCC29213; S. aureus ATCC 29213; read-out: MIC
H. influenzae ATCC 49247 [2] = assay: Minimal Bactericidal Concentration (MBC); type: cell-based; conditions: Haemophilus influenzae, ATCC49247, 99.9% killing
Procedure, shortened: (§3)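 Bactericidal endpoint follows the MIC read: aliquots of every well without visible growth, no fewer than five, go onto TSA. Incubation lasts exactly 24 h at 35° C. Surviving colonies are then counted.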

H. influenzae ATCC 49766 [3] = assay: Minimal Bactericidal Concentration (MBC); type: cell-based; conditions: Haemophilus influenzae, ATCC49766, 99.9% killing
Procedure, shortened: as §3

[4] = tested on: S. saprophyticus ATCC 15305; assay: MIC broth microdilution (NCCLS); type: cell-based, Staphylococcus saprophyticus; conditions: Staphylococcus saprophyticus, ATCC15305; S. saprophyticus ATCC 15305; read-out: MIC
Procedure, shortened: (§4)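 NCCLS broth microdilution; inoculum 10^5-10^6 CFU/ml; 2-fold serial dilutions; 35° C, 24 h; A650 plus visual read. Media: MHBCA (S. saprophyticus, E. faecium), MHBCA + 2% laked horse blood (Listeria), HTM (Haemophilus), the last two under 5% CO2.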

H. influenzae ATCC 49247 [5] = assay: MIC broth microdilution (NCCLS), fastidious bacteria; type: cell-based; conditions: Haemophilus influenzae, ATCC49247, HTM, 5% CO2
Procedure, shortened: as §2

H. influenzae ATCC 49766 [6] = assay: as above; type: cell-based; conditions: Haemophilus influenzae, ATCC49766, HTM, 5% CO2
Procedure, shortened: as §2

E. coli Ec117c (EIEC) = assay: MIC broth microdilution, E. coli strains; type: cell-based; conditions: Escherichia coli, pathotype EIEC
Experimental: as §1
(§5) Finally, compounds were also tested against populations of various clinical strains (antibiotic resistant strain panel, TABLE 1).

E. coli Ec027c (EIEC) = assay: MIC broth microdilution, E. coli strains; type: cell-based; conditions: Escherichia coli, pathotype EIEC
Experimental: as §1, §5

[7] = tested on: E. coli ATCC 35150 (O157:H7); assay: MIC broth microdilution, E. coli strains; type: cell-based; conditions: Escherichia coli, ATCC35150
Experimental: as §1, §5

[8] = tested on: E. coli d4-OLR-pen10 (O157:H7); assay: MIC broth microdilution, E. coli strains; type: cell-based; conditions: Escherichia coli
Experimental: as §1, §5

E. coli Ec022c (EIEC) = assay: MIC broth microdilution, E. coli strains; type: cell-based; conditions: Escherichia coli, pathotype EIEC
Experimental: as §1, §5

E. coli Ec118c (EIEC) = assay: MIC broth microdilution, E. coli strains; type: cell-based; conditions: Escherichia coli, pathotype EIEC
Experimental: as §1, §5

E. coli Ec119c (EIEC) = assay: MIC broth microdilution, E. coli strains; type: cell-based; conditions: Escherichia coli, pathotype EIEC
Experimental: as §1, §5

[9] = tested on: E. coli d25-ALR-pen14 (O157:H7); assay: MIC broth microdilution, E. coli strains; type: cell-based; conditions: Escherichia coli
Experimental: as §1, §5

E. faecium ATCC 35667 = assay: MIC broth microdilution (NCCLS); type: cell-based, Enterococcus faecium; conditions: Enterococcus faecium, ATCC35667, E. faecium ATCC 35667; read-out: MIC
Procedure, shortened: as §4

S. aureus MRSA COL = assay: MIC broth microdilution (NCCLS); type: cell-based, Staphylococcus aureus; conditions: Staphylococcus aureus, MRSA, S. aureus MRSA COL; read-out: MIC
Procedure, shortened: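 Susceptibility determined in cation-adjusted Mueller Hinton broth using serial twofold compound dilutions and a verified 10^5-10^6 CFU/ml inoculum.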

E. faecalis ATCC 29212 = assay: MIC broth microdilution (NCCLS); type: cell-based, Enterococcus faecalis; conditions: Enterococcus faecalis, ATCC29212; E. faecalis ATCC 29212; read-out: MIC
B. catarrhalis ATCC 8176 [10] = assay: MIC broth microdilution (NCCLS), fastidious bacteria; type: cell-based, Branhamella (Moraxella) catarrhalis; conditions: Moraxella catarrhalis, ATCC8176, HTM, 5% CO2
Procedure, shortened: as §2

B. catarrhalis ATCC 8176 [11] = assay: Minimal Bactericidal Concentration (MBC); type: cell-based, Branhamella (Moraxella) catarrhalis; conditions: Moraxella catarrhalis, ATCC8176, 99.9% killing
Experimental: Minimal Bactericidal Concentration (MBC). After the microtiter plates were read for the determination of the MIC, a 10-μl sample of each clear well (at least 5 wells without visible growth) was applied onto TSA plates for viable counts determination.
Petri dishes were incubated at 35° C. for exactly 24 h and bacterial colonies were counted.

CC1(C)S[C@@H]2[C@H](NC(=O)[C@H](N)c3ccccc3)C(=O)N2[C@H]1C(=O)O [Ampicillin] showed an MIC (E. coli MC4100) of 4 µg/mL (≈ 11.4 µM), an MIC (E. coli ATCC 25922; E. coli ATCC 25922 (Reference)) of 4 µg/mL (≈ 11.4 µM) and an MIC (E. coli ATCC 25922; Escherichia coli, ATCC25922, E. coli ATCC 25922 (Reference), read-out: MIC) of 4 to 8 µg/mL (≈ 11.4 to 22.9 µM). For the same compound, the MIC [1] was 64 µg/mL (≈ 183 µM), the MIC (S. aureus ATCC 29213) was 1 to 2 µg/mL (≈ 2.86 to 5.72 µM) and the MBC (H. influenzae ATCC 49247 [2]) was 4 µg/mL (≈ 11.4 µM). For the same compound, the MBC (H. influenzae ATCC 49766 [3]) was at most 0.12 µg/mL, the MIC [4] was 0.12 µg/mL (≈ 0.343 µM) and the MIC (H. influenzae ATCC 49247 [5]) was 2 to 4 µg/mL (≈ 5.72 to 11.4 µM). For the same compound, the MIC (H. influenzae ATCC 49766 [6]) was at most 0.12 µg/mL, the MIC (E. coli Ec117c (EIEC)) was 16 µg/mL (≈ 45.8 µM) and the MIC (E. coli Ec027c (EIEC)) was over 64 µg/mL. For the same compound, the MIC [7] was 2 µg/mL (≈ 5.72 µM), the MIC [8] was 2 to 4 µg/mL (≈ 5.72 to 11.4 µM) and the MIC (E. coli Ec022c (EIEC)) was over 64 µg/mL. It also gave an MIC (E. coli Ec118c (EIEC)) of over 64 µg/mL, an MIC (E. coli Ec119c (EIEC)) of over 64 µg/mL and an MIC [9] of 2 to 4 µg/mL (≈ 5.72 to 11.4 µM). The MIC (E. faecium ATCC 35667) was 1 µg/mL (≈ 2.86 µM), the MIC (S. aureus MRSA COL) was 8 µg/mL (≈ 22.9 µM) and the MIC (E. faecalis ATCC 29212) was 1 µg/mL (≈ 2.86 µM). For the same compound, the MIC (B. catarrhalis ATCC 8176 [10]) was at most 0.03 µg/mL and the MBC (B. catarrhalis ATCC 8176 [11]) was at most 0.03 µg/mL.

In the case of O=[N+]([O-])c1ccc(C=Cc2nc(Nc3cccc(O)c3)c3cc(F)ccc3n2)o1 [VI, 6-fluoro-2-[2-(5-nitro-2-furyl)vinyl]-4-(m-hydroxyanilino)-quinazoline], the melting point is reported as 241 to 242 °C (dec.).
